Among the data in patent US20060111341A1, “Use of galanthamine and the derivatives thereof in the production of medicaments” (priority 2003, published 2006) are IC50 values, retold here.

For assay [1], the target named is Butyrylcholinesterase (Homo sapiens, UniProt P06276). The assay is described as follows: biochemical.
Assay [2] has as its target Acetylcholinesterase (Homo sapiens, UniProt P22303). The assay is described as follows: biochemical.

Sequence of Acetylcholinesterase (P22303 32-614): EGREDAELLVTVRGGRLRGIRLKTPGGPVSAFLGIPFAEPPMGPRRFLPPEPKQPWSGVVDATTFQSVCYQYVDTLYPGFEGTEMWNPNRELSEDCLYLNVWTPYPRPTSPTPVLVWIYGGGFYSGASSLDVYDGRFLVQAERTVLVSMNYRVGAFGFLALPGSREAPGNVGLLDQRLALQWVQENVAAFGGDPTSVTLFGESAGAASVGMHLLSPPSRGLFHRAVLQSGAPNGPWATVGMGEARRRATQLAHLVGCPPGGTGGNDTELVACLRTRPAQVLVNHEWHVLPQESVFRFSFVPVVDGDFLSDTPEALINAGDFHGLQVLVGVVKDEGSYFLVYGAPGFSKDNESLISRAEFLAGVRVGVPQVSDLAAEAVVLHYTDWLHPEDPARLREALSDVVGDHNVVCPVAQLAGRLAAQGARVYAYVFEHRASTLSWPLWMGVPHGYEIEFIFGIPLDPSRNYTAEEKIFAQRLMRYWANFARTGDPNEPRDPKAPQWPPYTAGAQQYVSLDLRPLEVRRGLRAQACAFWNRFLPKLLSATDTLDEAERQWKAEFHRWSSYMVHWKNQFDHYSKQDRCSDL
Sequence of Butyrylcholinesterase (P06276 29-602): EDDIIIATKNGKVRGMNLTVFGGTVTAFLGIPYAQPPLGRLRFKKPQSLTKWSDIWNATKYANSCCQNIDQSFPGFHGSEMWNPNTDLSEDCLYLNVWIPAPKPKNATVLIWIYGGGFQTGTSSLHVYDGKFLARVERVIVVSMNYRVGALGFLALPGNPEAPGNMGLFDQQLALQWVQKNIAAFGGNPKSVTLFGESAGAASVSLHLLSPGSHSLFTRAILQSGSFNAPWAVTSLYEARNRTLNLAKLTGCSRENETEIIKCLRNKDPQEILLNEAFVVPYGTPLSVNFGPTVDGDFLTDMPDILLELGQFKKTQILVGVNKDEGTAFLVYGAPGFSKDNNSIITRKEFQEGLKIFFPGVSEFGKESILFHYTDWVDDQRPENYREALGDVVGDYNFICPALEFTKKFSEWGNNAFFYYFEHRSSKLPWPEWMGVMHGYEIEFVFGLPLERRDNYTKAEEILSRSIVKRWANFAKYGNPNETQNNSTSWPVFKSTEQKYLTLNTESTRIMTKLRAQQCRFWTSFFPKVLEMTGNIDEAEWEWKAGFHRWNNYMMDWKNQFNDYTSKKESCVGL

For orientation: IC50 means the point on the concentration scale where inhibition reaches its midpoint. A high value points to weaker potency in that assay. Turning to `COc1ccc2c3c1O[C@H]1C[C@@H](O)C=C[C@@]31CC[N+](C)(CC1CC1)C2` (some centres unmarked) [Nr 53], the IC50 in assay [1] was 3.6 µM; in assay [2], 1.2 µM.

`COc1ccc2c3c1OC1C[C@@H](O)C=CC31CCN(CCCN1CC3CC1CN3c1ccc(F)cc1)C2` (mixture of isomers) [Nr 61]: the IC50 is 5 µM in assay [1] and 5.2 µM in assay [2]. The matching figures for `COc1ccc2c3c1OC1C[C@@H](O)C=CC31CCN(c1ccnc(OCCCN(C)C)n1)C2` (mixture of isomers) [Nr 96]: 36 µM and 7.4 µM. As to `COC(=O)/C=C(\C(=O)OC)N1CCC23C=C[C@H](O)CC2Oc2c(OC)ccc(c23)C1` (mixture of isomers) [Nr 108], the results for the IC50 in assay [1] and in assay [2] were 80 µM and 140 µM, respectively. Turning to `COc1cc(N)c2c3c1O[C@H]1C[C@@H](O)C=C[C@@]31CCN(C)C2` [Nr 48], the IC50 is 4.9 µM in assay [1] and 77 µM in assay [2]. Taken in the same sequence, the figures for `COc1ccc2c3c1O[C@H]1C[C@@H](O)C=C[C@@]31CCN(C(=S)Oc1ccccc1)C2` [Nr 149] were above 100 µM and 7.2 µM. The matching figures for `COc1ccc2c3c1OC1C[C@@H](O)C=CC31CCN(CC#N)C2` (mixture of isomers) [Nr 37]: above 100 µM and 30 µM. Compound `COc1ccc2c3c1O[C@H]1C[C@@H](O)C=C[C@@]31CC[N+](C)(CCN1CCCCC1)C2` (some centres unmarked) [Nr 52] gave an IC50 in assay [2] of 4 µM.

In assay [1], `COc1ccc2c3c1OC1C[C@@H](O)C=CC31CCN(CCC#N)C2` (mixture of isomers) [Nr 77] displayed a half-inhibitory concentration (IC50) above 100 µM.

As for `COc1ccc2c3c1O[C@H]1C[C@@H](O)C=C[C@@]31CCN(CCCO)C2` [Nr 144], the IC50 is 5 µM in assay [1] and 2.8 µM in assay [2].

As to `CCCCNC(=S)O[C@@H]1C=C[C@]23CCN(C)Cc4ccc(OC)c(c42)O[C@@H]3C1` [Nr 182], the IC50 in assay [2] was 85 µM. As to `COc1ccc2c3c1OC1C[C@@H](O)C=CC31CCN(C(=O)Nc1ccc3ccccc3c1)C2` (mixture of isomers) [Nr 88], the IC50 in assay [1] was above 100 µM; in assay [2], 36 µM. Turning to `CCN(CC)c1nc(N(CC)CC)nc(N2CCC34C=C[C@H](O)CC3Oc3c(OC)ccc(c34)C2)n1` (mixture of isomers) [Nr 95], the IC50 in assay [1] was above 100 µM; in assay [2] it was 40 µM.

For the compound `COc1cc(Br)c2c(c1O)C13C=C[C@@H](O)CC1N(CC3)C2` (mixture of isomers) [Nr 14], the concentration for half-maximal inhibition (IC50) is 18 µM in assay [1] and above 100 µM in assay [2]. The matching figures for `COc1ccc2c3c1O[C@H]1C[C@@H](O)C=C[C@@]31CCN(CCC(=O)O)C2` [Nr 120]: 40 µM and 42 µM. In assay [2], `COc1cc(Br)c2c(c1O)C13C=CC(=O)CC1N(CC3)C2` (racemic) [Nr 13] had a half-inhibitory concentration (IC50) of 5 µM. Take `COc1cc(C)c2c3c1OC1C[C@H](O)C=CC31CC[N+](C)(Cc1ccccc1)C2` (mixture of isomers) [Nr 106]: the IC50 in assay [1] is 3 µM; in assay [2], above 100 µM. With `COc1ccc2c3c1O[C@H]1C[C@@H](O)C=C[C@@]31CCN(C(=O)OCC1c3ccccc3-c3ccccc31)C2` [Nr 134], in assay [2], 40 µM corresponded to half-maximal inhibition (IC50). `CCOC(=O)CCN1CCC23C=C[C@H](O)CC2Oc2c(OC)cc(Br)c(c23)C1` (mixture of isomers) [Nr 55]: the 50% inhibitory concentration (IC50) in assay [1] was 19 µM; in assay [2] it was above 100 µM. With `COc1ccc2c3c1O[C@H]1C[C@@H](O)C=C[C@@]31CCN(CCCCN1C(=O)c3ccccc3S1(=O)=O)C2` [Nr 161], the IC50 amounted to 1.5 µM in assay [1] and 0.022 µM in assay [2]. Taken in the same sequence, the figures for `COc1ccc2c3c1OC1C[C@@H](O)C=CC31CCC(N)C2` (mixture of isomers) [Nr 140] were above 100 µM and 5.3 µM. The matching figures for `COc1ccc2c3c1OC1C[C@@H](O)C=CC31CCN(C(=O)NC(C)(C)C)C2` (mixture of isomers) [Nr 82]: above 100 µM and 4.8 µM. Taken in the same sequence, the figures for `COc1cc2c(cc1OC)C(=O)C(CCCCCN1CC[C@@]34C=C[C@H](O)C[C@@H]3Oc3c(OC)ccc(c34)C1)C2` (some centres unmarked) [Nr 158] were 0.24 µM and 0.0052 µM. In assay [1], `COc1ccc2c3c1OC1C[C@@H](O)C=CC31CCN(C(=O)NC1CCCCC1)C2` (mixture of isomers) [Nr 83] displayed an IC50 above 100 µM.

As for `COc1ccc2c3c1O[C@@H]1C[C@H](O)C=C[C@]31CCN(CCCN(C)C)C2` [Nr 151], in assay [1], inhibition was half-maximal at 67 µM (IC50). In assay [2], `COc1ccc2c3c1O[C@H]1C[C@@H](O)C=C[C@@]31CC[N+](C)(CCN1CCCC1)C2` (some centres unmarked) [Nr 7] returned an IC50 of 2 µM. As to `COc1ccc2c3c1O[C@H]1C[C@@H](O)C=C[C@@]31CCN(CCC(=O)OC(C)(C)C)C2` [Nr 116], it took 4 µM to reach half-maximal inhibition in assay [1] (IC50). In assay [2], `COc1ccc2c3c1O[C@H]1C[C@@H](O)C=C[C@@]31CCN(CC#N)C2` [Nr 136] showed an IC50 of 15 µM.

As to `COc1ccc2c3c1O[C@H]1C[C@@H](O)C=C[C@@]31CC[N+](C)(CCCN1CCCCC1)C2` (some centres unmarked) [Nr 4], the half-inhibitory concentration (IC50) in assay [2] is 6 µM.

For the compound `COc1ccc2c3c1O[C@H]1C[C@@H](O)C=C[C@@]31CCN(CCCCCCN1C(=O)c3ccccc3S1(=O)=O)C2` [Nr 164], it took 0.043 µM to reach half-maximal inhibition in assay [2] (IC50). `COc1ccc2c3c1OC1C[C@@H](O)C=CC31CCN(C(=O)CCl)C2` (mixture of isomers) [Nr 98] displayed an IC50 in assay [1] of 20 µM. As for `COc1cc(Br)c2c(c1O)C13CCC(O)CC1N(CC3)C2` (racemic) [Nr 205], half-maximal inhibition in assay [2] (IC50) required 50 µM. `COc1ccc2c3c1O[C@@H]1C[C@H](OC(=S)Nc4ccccc4)C=C[C@]31CCN(C)C2` [Nr 181] came in with an IC50 in assay [2] of 35 µM. Same read-out and setting: in the case of `COc1ccc2c3c1O[C@H]1C[C@@H](O)C=C[C@]31CC[N+](C)(CCN1CCOCC1)C2` (some centres unmarked) [Nr 199] it was 5 µM; in that of `COc1cc(Br)c2c3c1O[C@H]1C[C@@H](O)C=C[C@@]31CCNC2` [Nr 29], 3 µM; in that of `COc1ccc2c3c1O[C@H]1C[C@@H](O)C=C[C@@]31CCN(C)[C@@H]2C#N` [Nr 132], 1.2 µM. Compound `COc1cc(Br)c2c3c1O[C@@H]1C[C@H](O)C=C[C@]31CCN(CCCN1CCN(C)CC1)C2` [Nr 273] gave an IC50 in assay [1] of 31 µM.

In assay [2], `COc1ccc2c3c1O[C@H]1C[C@@H](O)C=C[C@@]31CC[N+](C)(CC(N)=O)C2` (some centres unmarked) [Nr 51] had an IC50 of 3.1 µM. Still for that read-out and setting: next, `COc1ccc2c3c1O[C@H]1C[C@@H](O)C=C[C@@]31CCN(CCCCN1C(=O)c3ccccc3S1(=O)=O)C2` [Nr 165]: 0.027 µM; `COc1ccc2c3c1O[C@@H]1C[C@H](OC(=O)N[C@H](C)c4ccccc4)C=C[C@]31CCN(C)C2` [Nr 180]: 85 µM; `COc1cc(C)c2c3c1O[C@H]1C[C@@H](O)C=C[C@@]31CCN(C)C2C` (some centres unmarked) [Nr 146]: 83 µM. On the same count and under the same terms, next, `COc1cc(Br)c2c3c1OC1C[C@@H](O)C=CC31CCN(C(=O)CCN1CCCCC1)C2` (mixture of isomers) [Nr 43]: 0.2 µM.

The compound `COc1cc(Br)c2c3c1OC1CC(=O)C=CC31CCN(C)C2` (racemic) [Nr 11] showed an IC50 in assay [2] of 50 µM. As to `COc1ccc2c3c1O[C@H]1C[C@@H](OC(=O)N[C@@H](C)c4ccccc4)C=C[C@@]31CCN(C)C2` [Nr 3], in assay [1], the IC50 was found to be 75 µM. Compound `COc1cc(Br)c2c3c1O[C@H]1C[C@@H](O)C=C[C@@]31CCN(C)C2` [Nr 30] yielded an IC50 in assay [2] of 4 µM. Still for that read-out and setting: next, `COc1ccc2c3c1O[C@H]1C[C@@H](O)C=C[C@@]31CC[N+](C)(CCCCl)C2` (some centres unmarked) [Nr 59]: 0.35 µM; `COc1ccc2c3c1O[C@@H]1C[C@H](O)C=C[C@]31CCN(C(=O)NC(C)(C)C)C2` [Nr 125]: 93 µM. `CCNC(=O)N1CCC23C=C[C@H](O)CC2Oc2c(OC)ccc(c23)C1` (mixture of isomers) [Nr 87] gave a 50% inhibitory concentration (IC50) in assay [1] above 100 µM. `COc1cc2c(cc1OC)C(=O)C(CCCCCN1CC[C@@]34C=C[C@H](O)C[C@@H]3Oc3c(OC)ccc(c34)C1)C2` (some centres unmarked) [Nr 166] displayed an IC50 in assay [2] of 0.023 µM. On to `COc1ccc2c3c1O[C@H]1C[C@@H](O)C=C[C@@]31CCN(CCCN1CCCCC1)C2` [Nr 162], for which the IC50 in assay [2] turned out to be 0.36 µM. As for `COc1ccc2c3c1O[C@H]1C[C@@H](O)C=C[C@@]31CCN(CCCCCN1C(=O)c3ccccc3S1(=O)=O)C2` [Nr 163], it took 0.022 µM to reach half-maximal inhibition in assay [2] (IC50). As for `CCOC(=O)CN1CCC23C=C[C@H](O)CC2Oc2c(OC)cc(Br)c(c23)C1` (mixture of isomers) [Nr 26], the IC50 in assay [2] is 20 µM. In assay [2], `COc1cc(Br)c2c3c1O[C@@H]1C[C@H](O)C=C[C@]31CCN(C(=O)CN1CCN(C)CC1)C2` [Nr 272] showed an IC50 of 89 µM. The same measure, in the same setting: next, `COc1ccc2c3c1O[C@H]1C[C@@H](O)C=C[C@@]31CC[N+](C)(CCN(C)C)C2` (some centres unmarked) [Nr 8]: 8 µM.

As for `CCOC(=O)CN1CCC23C=C[C@H](O)CC2Oc2c(OC)ccc(c23)C1` (mixture of isomers) [Nr 100], in assay [1], the IC50 was found to be 90 µM. The same measure, in the same setting: in the case of `COc1ccc2c3c1O[C@H]1C[C@@H](O)C=C[C@@]31CCN(CCCN(C)C)C2` (racemic) [Nr 74] it was 10 µM. As for `COc1ccc2c3c1O[C@H]1C[C@H](OC(=O)CNC(=O)OC(C)(C)C)C=C[C@@]31CCN(C)C2` [Nr 6], in assay [2], the IC50 was 45 µM.

Take `C#CCN1CC[C@@]23C=C[C@H](O)C[C@@H]2Oc2c(OC)ccc(c23)C1` [Nr 156]: in assay [2], half-maximal inhibition (IC50) required 32 µM. Still for that read-out and setting: in the case of `COc1cc(Br)c2c3c1OC1C[C@@H](O)C=CC31CCNC2` (mixture of isomers) [Nr 93] it was 5 µM.

Regarding `CCOC(=O)CCN1CCC23C=C[C@H](O)CC2Oc2c(OC)ccc(c23)C1` (mixture of isomers) [Nr 78], in assay [1], the midpoint of inhibition, the IC50, lay at 17 µM. On the same count and under the same terms, next, `COc1ccc2c3c1O[C@H]1C[C@@H](OC(=O)N[C@H](C)c4ccccc4)C=C[C@@]31CCN(C)C2` [Nr 2]: 70 µM.

`COc1cc(Br)c2c3c1OC1C[C@@H](O)C=CC31CCN(CCN1CCOCC1)C2` (mixture of isomers) [Nr 25] yielded an IC50 in assay [2] of 3 µM. For `COc1ccc2c3c1OC1C[C@@H](O)C=CC31CCN(CCN1CCOCC1)C2` (mixture of isomers) [Nr 36], the IC50 in assay [1] came to 7 µM. For the compound `COc1ccc2c(c1)CC(CCCCN1CC[C@@]34C=C[C@H](O)C[C@@H]3Oc3c(OC)ccc(c34)C1)C2=O` (some centres unmarked) [Nr 168], in assay [2], inhibition was half-maximal at 0.024 µM (IC50).

In assay [2], `COc1ccc2c3c1OC1C/C(=N/N)C=CC31CCN(C)C2` (racemic) [Nr 28] showed a concentration for half-maximal inhibition (IC50) of 40 µM.
